This is an account of results in paper PMC12073298, “Design, Synthesis, and Biological Evaluation of Naphthoquinone Salts as Anticancer Agents” (Molecules, 2025).

Molecules are shown by their SMILES. Where two headings read alike, the source gives them in different places. A value given as a limit tells only on which side of the number the result lay.

Assay [1] has as its system human endometrial cancer cells (HEC1A). The conditions noted are these: previous study, cell line not printed here; read-out: IC50 (anticancer potency of starting materials); cited from earlier work.
For assay [2], the system named is normal endometrial stromal cells (MAD11). Kind of assay: MTT cell viability assay, MAD11 cells. Type of assay: cell-based, human. The note with it: MAD11 non-cancerous cells, n = 3 biological replicates, read-out: Mean IC50 (μM) MAD11 ± SD. As for the experimental part:
(§1) The cytotoxic effects of the synthesized salt compounds were assessed against human endometrial cancer cells (HEC1A) and normal endometrial stromal cells (MAD11) using the MTT cell viability assay. BH10 was used as the reference compound.
(§2) Reagents and equipment: phosphate-buffered saline (PBS) (Sigma Aldrich, St. Louis, MO, USA), 10× Trypsin-EDTA solution (Sigma Aldrich, 59418C), Dulbecco’s Modified Eagle’s Medium (Sigma Aldrich), foetal bovine serum (FBS), and 100× penicillin-streptomycin solution (Sigma Aldrich P4333). The MTT reagent was prepared by dissolving 5 mg/mL MTT powder in sterile PBS, followed by filtration, whereas the MTT solvent contained 4 mM HCl and 0.1% Nonidet P-40 in isopropanol. Dimethyl sulfoxide (DMSO) was also sourced from Sigma Aldrich. Absorbance measurements were acquired using Kaleido 1.0 software coupled with an EnSight™ HH3400 Multimode Plate Reader (PerkinElmer, Waltham, MA, USA). HEC-1-A endometrial cancer cells were obtained from ATCC, while MAD11 endometrial stromal cells were provided by Dr. Hui Li (University of Virginia). MAD11 cells, derived from non-cancerous donors, were immortalized via human telomerase reverse transcriptase (hTERT).
(§3) Method: The methods were adapted from Byrne et al. (2014). Cells were cultured in DMEM supplemented with 10% FBS and 1% Pen-Strep solution (100 U/mL penicillin and 0.1 mg/mL streptomycin). Upon reaching ~70% confluence, the cells were washed with sterile PBS and detached using a 1× trypsin-EDTA solution. The cells were then resuspended in culture media, counted, and seeded into sterile 96-well tissue culture plates (2500 cells per well for MAD11; 5000 cells per well for HEC-1-A). The cells were incubated at 37 °C with 5% CO2 for 24 h prior to drug treatment. Drugs were serially diluted in culture medium to final concentrations of 100, 50, 25, 12.5, 6.3, 3.1, 1.6, and 0.8 µM per well and applied in triplicate. For compounds 7a–f and 15, as their IC₅₀ values were below 0.8 µM, an additional set of three biological replicates was conducted using a lower concentration range (500, 250, 125, 63, 31, 16, 8, and 4 nM). To minimize variations due to DMSO (vehicle), both drug dilutions and control wells received the same final concentration of DMSO. After 48 h of incubation at 37 °C with 5% CO2, cell viability was assessed by adding 20 µL/well of MTT reagent for 3 h. Supernatants were aspirated, and formazan crystals were dissolved in MTT solvent before absorbance was measured at 590/620 nm using an EnSight™ HH3400 Multimode Plate Reader. Cell viability was expressed as a percentage of the vehicle (DMSO-treated) control, with results reported as mean ± SEM from three independent experiments. IC50 values were determined using GraphPad Prism 9.

Assay [3] concerns human endometrial cancer cells (HEC1A). In words: MTT cell viability assay, HEC1A cells. The note with it: for IC50: 48 h, HEC1A cells, MTT, n = 3 biological replicates, read-out: Mean IC50 (μM) HEC1A ± SD; for Selectivity Ratio: IC50 value from MAD11 cells divided by the IC50 value from HEC1A cells. Type of assay: cell-based. On the procedure: as §1, §2, §3
A general note: Tetrazolium dyes change colour on reduction, which living cells bring about.

`O=C1C=C(NCCN2CCOCC2)C(=O)c2ccccc21` [Compound 1a]: the IC50 (commonly the midpoint of a concentration-inhibition curve) in assay [1] is > 40 µM.

Turning to `CC1=C(NCCN2CCOCC2)C(=O)c2ccccc2C1=O` [Compound 1h], the IC50 in assay [1] is > 40 µM.

For `C[N+]1(CCNC2=CC(=O)c3ccccc3C2=O)CCOCC1.[I-]` [Compound 2a, 4-(2-((1,4-Dioxo-1,4-dihydronaphthalen-2-yl)amino)ethyl)-4-methylmorpholin-4-ium iodide], the IC50 in assay [2] (Homo sapiens, MAD11, 48 h) is > 100 µM; in assay [3] (Homo sapiens, HEC-1-A), 21.1 ± 2.99 µM. In addition, in assay [3], the “Selectivity Ratio” value was >4.73.

As for `C[N+]1(CCCNC2=CC(=O)c3ccccc3C2=O)CCCCC1` [Compound 2b, 1-(3-((1,4-Dioxo-1,4-dihydronaphthalen-2-yl)amino)propyl)-1-methylpiperidin-1-ium iodide], the IC50 in assay [2] (Homo sapiens, MAD11, 48 h) was > 100 µM; in assay [3] (Homo sapiens, HEC-1-A), > 100 µM.

Turning to `C[N+](C)(C)CCNC1=C(Cl)C(=O)c2ccccc2C1=O` [Compound 2c, 2-((3-Chloro-1,4-dioxo-1,4-dihydronaphthalen-2-yl)amino)-N,N,N-trimethylethan-1-aminium iodide], the IC50 in assay [2] (Homo sapiens, MAD11, 48 h) was > 100 µM; in assay [3] (Homo sapiens, HEC-1-A), 97.2 ± 8.2 µM.

For `C[N+]1(CCNC2=C(Cl)C(=O)c3ccccc3C2=O)CCCCC1.[I-]` [Compound 2d, 1-(2-((3-Chloro-1,4-dioxo-1,4-dihydronaphthalen-2-yl)amino)ethyl)-1-methylpiperidin-1-ium iodide], the IC50 in assay [2] (Homo sapiens, MAD11, 48 h) is > 100 µM; in assay [3] (Homo sapiens, HEC-1-A), 58.8 ± 3.01 µM. For the same molecule, the “Selectivity Ratio” value in assay [3] is listed as >1.70.

Consider `C[N+](C)(C)CCCNC1=C(Cl)C(=O)c2ccccc2C1=O` [Compound 2e, 3-((3-Chloro-1,4-dioxo-1,4-dihydronaphthalen-2-yl)amino)-N,N,N-trimethylpropan-1-aminium iodide], for which the IC50 in assay [2] (Homo sapiens, MAD11, 48 h) was > 100 µM; in assay [3] (Homo sapiens, HEC-1-A), > 100 µM.

As to `C[N+]1(CCCNC2=C(Cl)C(=O)c3ccccc3C2=O)CCOCC1` [Compound 2f, 4-(3-((3-Chloro-1,4-dioxo-1,4-dihydronaphthalen-2-yl)amino)propyl)-4-methylmorpholin-4-ium iodide], the IC50 in assay [2] (Homo sapiens, MAD11, 48 h) was > 100 µM; in assay [3] (Homo sapiens, HEC-1-A) it was > 100 µM.

For the molecule `C[N+]1(CCNC2=C(Br)C(=O)c3ccccc3C2=O)CCOCC1.[I-]` [Compound 2g, 4-(2-((3-Bromo-1,4-dioxo-1,4-dihydronaphthalen-2-yl)amino)ethyl)-4-methylmorpholin-4-ium iodide], the IC50 in assay [2] (Homo sapiens, MAD11, 48 h) was > 100 µM; in assay [3] (Homo sapiens, HEC-1-A), 23.8 ± 4.17 µM. In addition, the “Selectivity Ratio” value in assay [3] was >4.20.

As for `CC1=C(NCC[N+]2(C)CCOCC2)C(=O)c2ccccc2C1=O` [Compound 2h, 4-Methyl-4-(2-((3-methyl-1,4-dioxo-1,4-dihydronaphthalen-2-yl)amino)ethyl)morpholin-4-ium iodide], the IC50 in assay [2] (Homo sapiens, MAD11, 48 h) was > 100 µM; in assay [3] (Homo sapiens, HEC-1-A), 95.5 ± 14.7 µM.

For `Cc1n(C)c2c([n+]1C)C(=O)c1ccccc1C2=O.[Br-]` [Compound 7a, 1,2,3-Trimethyl-4,9-dioxo-4,9-dihydro-1H-naphtho [2,3-d]imidazol-3-ium bromide], the IC50 in assay [2] (48 h) was 0.0657 ± 0.00641 µM; in assay [3] (Homo sapiens, HEC-1-A) it was 0.00953 ± 0.0007 µM. Also, the “Selectivity Ratio” value in assay [3] is 6.89.

With `Cc1n(C)c2c([n+]1C)C(=O)c1c(cccc1[N+](=O)[O-])C2=O.[Br-]` [Compound 7b, 1,2,3-Trimethyl-5-nitro-4,9-dioxo-4,9-dihydro-1H-naphtho [2,3-d]imidazol-3-ium bromide], the IC50 in assay [2] (Homo sapiens, MAD11, 48 h) came out at 0.952 ± 0.215 µM; in assay [3] (Homo sapiens, HEC-1-A), 0.023 ± 0.0033 µM. Further, the “Selectivity Ratio” value in assay [3] is 41.43.

Regarding `Cc1n(C)c2c([n+]1C)C(=O)c1cc([N+](=O)[O-])ccc1C2=O.[Br-]` [Compound 7c, 1,2,3-Trimethyl-6-nitro-4,9-dioxo-4,9-dihydro-1H-naphtho [2,3-d]imidazol-3-ium bromide], the IC50 in assay [2] (Homo sapiens, MAD11, 48 h) is 0.0685 ± 0.0061 µM; in assay [3] (Homo sapiens, HEC-1-A) it was 0.0288 ± 0.0014 µM. Moreover, the “Selectivity Ratio” value in assay [3] stood at 2.37.

For `COc1ccc2c(c1)C(=O)c1c(n(C)c(C)[n+]1C)C2=O` [Compound 7d, 6-Methoxy-1,2,3-trimethyl-4,9-dioxo-4,9-dihydro-1H-naphtho [2,3-d]imidazol-3-ium bromide], the IC50 in assay [2] (Homo sapiens, MAD11, 48 h) is 0.194 ± 0.0191 µM; in assay [3] (Homo sapiens, HEC-1-A) it was 0.0256 ± 0.0021 µM.

`Cc1ccc2c(c1)C(=O)c1c([n+](C)c(C)n1C)C2=O` [Compound 7e, 1,2,3,7-Tetramethyl-4,9-dioxo-4,9-dihydro-1H-naphtho [2,3-d]imidazol-3-ium bromide]: the IC50 in assay [2] (Homo sapiens, MAD11, 48 h) was determined as 0.101 ± 0.0124 µM; in assay [3] (Homo sapiens, HEC-1-A) it was 0.0149 ± 0.0012 µM.

Consider `Cc1n(C)c2c([n+]1C)C(=O)c1ccncc1C2=O.[Br-]` [Compound 7f, 1,2,3-Trimethyl-4,9-dioxo-4,9-dihydro-3H-imidazo [4,5-g]isoquinolin-1-ium bromide], for which the half-inhibitory concentration (IC50) is 4.8 ± 0.327 µM in assay [2] (Homo sapiens, MAD11, 48 h) and 0.472 ± 0.0378 µM in assay [3] (Homo sapiens, HEC-1-A). In assay [3] (Figure 3, SAR summary), the “loss in potency relative to 7a” value is reported as ~ 50 fold. In addition, the “Selectivity Ratio” value in assay [3] is recorded as 10.16.

On to `Cc1n(C)c2cc3ccccc3cc2[n+]1C.[I-]` [Compound 9, 1,2,3-Trimethyl-1H-naphtho [2,3-d]imidazol-3-ium iodide], for which the IC50 came to 64.6 ± 14 µM in assay [2] (Homo sapiens, MAD11, 48 h); 23.9 ± 2.97 µM in assay [3]; 24.9 µM in assay [3] (Homo sapiens, HEC-1-A). In assay [3], the “Selectivity Ratio” value came to 2.70.

With `Cc1n(C)c2ccccc2[n+]1C` [Compound 11, 1,2,3-Trimethyl-1H-benzo[d]imidazol-3-ium iodide], the IC50 in assay [2] (Homo sapiens, MAD11, 48 h) was > 100 µM; in assay [3] (Homo sapiens, HEC-1-A), > 100 µM.

Consider `Cn1c[n+](C)c2ccccc21` [Compound 13, 1,3-Dimethyl-1H-benzo[d]imidazol-3-ium iodide], for which the IC50 in assay [2] (Homo sapiens, MAD11, 48 h) was > 100 µM; in assay [3] (Homo sapiens, HEC-1-A) it was > 100 µM.

For `Cc1n(C)c2c([n+]1C)C(=O)c1ccccc1C2=O.[I-]` [Compound 15, 1,2,3-Trimethyl-4,9-dioxo-4,9-dihydro-1H-naphtho [2,3-d]imidazol-3-ium iodide], the IC50 in assay [2] (48 h) turned out to be 0.154 ± 0.0109 µM. Also, in assay [3], the IC50 stood at 0.0135 ± 0.0009 µM and the “Selectivity Ratio” value was determined as 11.43.

Take `C[N+]1(CCn2cc(Cn3c(C(F)(F)F)nc4c3C(=O)c3ccccc3C4=O)nn2)CCOCC1.[I-]` [Compound 17a, 4-(2-(4-((4,9-Dioxo-2-(trifluoromethyl)-4,9-dihydro-1H-naphtho [2,3-d]imidazol-1-yl)methyl)-1H-1,2,3-triazol-1-yl)ethyl)-4-methylmorpholin-4-ium iodide]: the IC50 in assay [2] (Homo sapiens, MAD11, 48 h) is 111 ± 45 µM; in assay [3] (Homo sapiens, HEC-1-A), 11.2 ± 2.63 µM. Also, the “Selectivity Ratio” value in assay [3] is reported as 9.93.

On to `C[N+]1(CCn2cc(Cn3c(C(F)(F)F)nc4c3C(=O)c3ccccc3C4=O)nn2)CCCCC1.[I-]` [Compound 17b, 1-(2-(4-((4,9-Dioxo-2-(trifluoromethyl)-4,9-dihydro-1H-naphtho [2,3-d]imidazol-1-yl)methyl)-1H-1,2,3-triazol-1-yl)ethyl)-1-methylpiperidin-1-ium iodide], for which the IC50 in assay [2] (Homo sapiens, MAD11, 48 h) was > 100 µM; in assay [3] (Homo sapiens, HEC-1-A), 6.79 ± 1 µM. In addition, the “Selectivity Ratio” value in assay [3] is given as >14.73.

On to `C[N+]1(CCCn2cc(Cn3c(C(F)(F)F)nc4c3C(=O)c3ccccc3C4=O)nn2)CCCCC1.[I-]` [Compound 17c, 1-(3-(4-((4,9-Dioxo-2-(trifluoromethyl)-4,9-dihydro-1H-naphtho [2,3-d]imidazol-1-yl)methyl)-1H-1,2,3-triazol-1-yl)propyl)-1-methylpiperidin-1-ium iodide], for which the IC50 in assay [2] (Homo sapiens, MAD11, 48 h) was > 100 µM; in assay [3] (Homo sapiens, HEC-1-A) it was 5.62 ± 1.43 µM. Moreover, the “Selectivity Ratio” value in assay [3] is given as >17.79.

On to `Cc1nc2c(n1CCC[N+]1(C)CCCCC1)C(=O)c1ccccc1C2=O.[I-]` [Compound 19, 1-Methyl-1-(3-(2-methyl-4,9-dioxo-4,9-dihydro-1H-naphtho [2,3-d]imidazol-1-yl)propyl) piperidin-1-ium iodide], for which the half-maximal inhibitory concentration (IC50) in assay [2] (Homo sapiens, MAD11, 48 h) amounted to 40.8 ± 14.1 µM; in assay [3] (Homo sapiens, HEC-1-A), 6.35 ± 1.41 µM. In addition, the “Selectivity Ratio” value in assay [3] came to 6.42.
